# According to patent US8471005B2 (Cephalon, Inc., priority 2008, dated 2013):
# pIC50: −log10 of the molar value.
# Target: T1, ALK (Homo sapiens, UniProt Q9UM73)
# T1 construct: host or cells: baculovirus expression system
# Assay: ALK Kinase Assay (ELISA/TRF, PLC-γ substrate)
# Assay type: biochemical
# Details: ALK Kinase Inhibition; read-out: ALK Potency
# Description: Briefly, each 96-well plate was coated with […] of 10 μg/mL substrate (phospholipase C-γ) in Tris-buffered saline (TBS). […] The reaction was initiated by adding enzyme (30 ng/ml ALK) and was allowed to proceed at 37° C. for 15 minutes. Detection of the phosphorylated product was performed by adding 100 μl/well of Eu—N1 labeled PT66 antibody (Perkin Elmer # AD0041).
# Data analysis was performed using ActivityBase (IDBS, Guilford, UK). IC50 values were calculated by plotting percent inhibition versus log10 of the concentration of compound and fitting to the nonlinear regression sigmoidal dose-response (variable slope) equation in XLFit (IDBS, Guilford, UK).
# T1 sequence (Q9UM73 19-1620): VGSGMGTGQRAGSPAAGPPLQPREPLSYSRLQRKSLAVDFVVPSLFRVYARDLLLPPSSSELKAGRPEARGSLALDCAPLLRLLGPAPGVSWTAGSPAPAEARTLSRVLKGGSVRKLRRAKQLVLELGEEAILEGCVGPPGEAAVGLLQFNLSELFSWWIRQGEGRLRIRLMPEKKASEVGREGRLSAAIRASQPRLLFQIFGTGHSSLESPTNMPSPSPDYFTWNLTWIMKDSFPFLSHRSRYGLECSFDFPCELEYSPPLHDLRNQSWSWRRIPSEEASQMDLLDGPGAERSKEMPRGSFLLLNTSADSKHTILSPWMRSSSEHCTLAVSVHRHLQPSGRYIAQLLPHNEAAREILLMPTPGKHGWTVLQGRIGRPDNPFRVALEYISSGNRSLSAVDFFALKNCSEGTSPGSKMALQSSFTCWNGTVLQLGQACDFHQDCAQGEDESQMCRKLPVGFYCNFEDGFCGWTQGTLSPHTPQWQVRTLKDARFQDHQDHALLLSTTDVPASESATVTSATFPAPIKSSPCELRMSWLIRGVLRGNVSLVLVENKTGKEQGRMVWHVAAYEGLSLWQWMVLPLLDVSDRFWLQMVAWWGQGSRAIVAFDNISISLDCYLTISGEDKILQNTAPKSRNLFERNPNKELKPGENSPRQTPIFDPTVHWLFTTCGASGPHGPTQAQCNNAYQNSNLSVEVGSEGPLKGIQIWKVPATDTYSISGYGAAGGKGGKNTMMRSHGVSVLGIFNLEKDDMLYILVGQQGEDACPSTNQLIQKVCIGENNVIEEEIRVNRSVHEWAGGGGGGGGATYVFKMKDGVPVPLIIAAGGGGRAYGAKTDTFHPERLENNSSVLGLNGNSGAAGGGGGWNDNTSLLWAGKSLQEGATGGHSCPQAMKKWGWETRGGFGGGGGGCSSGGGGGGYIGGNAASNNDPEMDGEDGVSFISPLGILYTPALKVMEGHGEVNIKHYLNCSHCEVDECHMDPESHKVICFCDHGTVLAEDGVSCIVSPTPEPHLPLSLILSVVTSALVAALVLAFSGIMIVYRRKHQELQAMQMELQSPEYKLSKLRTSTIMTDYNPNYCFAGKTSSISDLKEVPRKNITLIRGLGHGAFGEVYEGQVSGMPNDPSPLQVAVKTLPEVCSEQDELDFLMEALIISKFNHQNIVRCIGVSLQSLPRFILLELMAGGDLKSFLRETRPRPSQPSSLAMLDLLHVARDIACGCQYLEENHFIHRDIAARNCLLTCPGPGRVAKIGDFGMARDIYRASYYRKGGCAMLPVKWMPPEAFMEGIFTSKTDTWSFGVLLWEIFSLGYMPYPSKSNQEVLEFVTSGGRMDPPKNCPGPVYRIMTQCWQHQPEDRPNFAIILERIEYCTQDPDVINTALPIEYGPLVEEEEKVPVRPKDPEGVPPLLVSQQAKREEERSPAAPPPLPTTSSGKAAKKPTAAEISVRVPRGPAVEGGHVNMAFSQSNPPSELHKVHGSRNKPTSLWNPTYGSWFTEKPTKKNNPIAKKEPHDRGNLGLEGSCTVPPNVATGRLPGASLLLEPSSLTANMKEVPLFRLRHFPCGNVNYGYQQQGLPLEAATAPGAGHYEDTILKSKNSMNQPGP
row,pIC50,Molecule
1,> 7.00,"COc1cc(N2CCC(N3CCOCC3)CC2)ccc1Nc1ncc2ccc(-c3cccc(NS(C)(=O)=O)c3)n2n1 [Example 1446, N-(3-{2-[2-Methoxy-4-(4-morpholin-4-yl-piperidin-1-yl)-phenylamino]-pyrrolo[2,1-f][1,2,4]triazin-7-yl}-phenyl)-methanesulfonamide]"
2,6.00 to 7.00,"COc1ccc(-c2ccc3cnc(Nc4ccc(N5CCN(C)CC5)c(Cl)c4)nn23)cn1 [Example 1419, [3-Chloro-4-(4-methyl-piperazin-1-yl)-phenyl]-[7-(6-methoxy-pyridin-3-yl)-pyrrolo[2,1-f][1,2,4]triazin-2-yl]-amine]"
3,> 7.00,"CN1CCN(c2ccc(Nc3ncc4ccc(-c5ccccc5N(C)S(C)(=O)=O)n4n3)cc2F)CC1 [Example 1421, N-(2-{2-[3-Fluoro-4-(4-methyl-piperazin-1-yl)-phenylamino]-pyrrolo[2,1-f][1,2,4]triazin-7-yl}-phenyl)-N-methyl-methanesulfonamide]"
4,> 7.00,"COc1cc(N2CCCC(N3CCN(CCO)CC3)C2)ccc1Nc1ncc2ccc(-c3ccccc3OC)n2n1 (centres unmarked) [Example 1443, 2-[4-(1-{3-Methoxy-4-[7-(2-methoxy-phenyl)-pyrrolo[2,1-f][1,2,4]triazin-2-ylamino]-phenyl}-piperidin-3-yl)-piperazin-1-yl]-ethanol]"
5,> 7.00,"COc1cc(N2CCC(N3CCOCC3)CC2)ccc1Nc1ncc2ccc(-c3cccc(N(C)S(C)(=O)=O)c3)n2n1 [Example 1449, N-(3-{2-[2-Methoxy-4-(4-morpholin-4-yl-piperidin-1-yl)-phenylamino]-pyrrolo[2,1-f][1,2,4]triazin-7-yl}-phenyl)-N-methyl-methanesulfonamide]"
6,6.00 to 7.00,"COc1ccc(-c2ccc3cnc(Nc4ccc(N5CCN(C)CC5)cc4)nn23)cn1 [Example 81, [7-(6-Methoxy-pyridin-3-yl)-pyrrolo[2,1-f][1,2,4]triazin-2-yl]-[4-(4-methyl-piperazin-1-yl)-phenyl]-amine]"
7,> 7.00,"COc1ccccc1-c1ccc2cnc(Nc3ccc(N4CCN(C)CC4)c(Cl)c3)nn12 [Example 1418, [3-Chloro-4-(4-methyl-piperazin-1-yl)-phenyl]-[7-(2-methoxy-phenyl)-pyrrolo[2,1-f][1,2,4]triazin-2-yl]-amine]"
8,> 7.00,"CN1CCN(c2ccc(Nc3ncc4ccc(-c5cccc(S(=O)(=O)NC(C)(C)C)c5)n4n3)cc2Cl)CC1 [Example 1411, N-tert-Butyl-3-{2-[3-chloro-4-(4-methyl-piperazin-1-yl)-phenylamino]-pyrrolo[2,1-f][1,2,4]triazin-7-yl}-benzenesulfonamide]"
9,> 7.00,"CN1CCN(c2ccc(Nc3ncc4ccc(-c5ccccc5N(C)S(C)(=O)=O)n4n3)cc2Cl)CC1 [Example 1424, N-(2-{2-[3-Chloro-4-(4-methyl-piperazin-1-yl)-phenylamino]-pyrrolo[2,1-f][1,2,4]triazin-7-yl}-phenyl)-N-methyl-methanesulfonamide]"
10,> 7.00,"COc1ccccc1-c1ccc2cnc(Nc3ccc(N4CCN(C)CC4)cc3)nn12 [Example 20, [7-(2-Methoxy-phenyl)-pyrrolo[2,1-f][1,2,4]triazin-2-yl]-[4-(4-methyl-piperazin-1-1)-phenyl]-amine]"
11,> 7.00,"C[C@H](O)CN1CCN(c2ccc(Nc3ncc4ccc(-c5cccc(S(=O)(=O)NC(C)(C)C)c5)n4n3)cc2F)CC1 [Example 1412, N-tert-Butyl-3-(2-{3-fluoro-4-[4-((S)-2-hydroxy-propyl)-piperazin-1-yl]-phenylamino}-pyrrolo[2,1-f][1,2,4]triazin-7-yl)-benzenesulfonamide]"
12,> 7.00,"CN1CCN(c2ccc(Nc3ncc4ccc(-c5cccc(S(=O)(=O)NC(C)(C)C)c5)n4n3)cc2)CC1 [Example 23, N-tert-Butyl-3-{2-[4-(4-methyl-piperazin-1-yl)-phenylamino]-pyrrolo[2,1-f][1,2,4]triazin-7-yl}-benzenesulfonamide]"

# Same assay, conditions: ALK kinase inhibition, 1 μM ATP; read-out: ALK Potency
row,pIC50,Molecule
1,> 7.00,"COc1cc(N2CCC(N3CCN(C(C)=O)CC3)CC2)ccc1Nc1ncc2ccc(-c3ccccc3OC)n2n1 [Example 536, 1-[4-(1-{3-Methoxy-4-[7-(2-methoxy-phenyl)-pyrrolo[2,1-f][1,2,4]triazin-2-ylamino]-phenyl}-piperidin-4-yl)-piperazin-1-yl]-ethanone]"
2,5.00 to 6.00,"CS(=O)(=O)N1Cc2cccc(-c3ccc4cnc(Nc5ccc(C6CCN(CC(N)=O)CC6)cc5)nn34)c2C1 [Example 579, 2-(4-{4-[7-(2-Methanesulfonyl-2,3-dihydro-1H-isoindol-4-yl)-pyrrolo[2,1-f][1,2,4]triazin-2-ylamino]-phenyl}-piperidin-1-yl)-acetamide]"
3,> 7.00,"COc1cc(N2CCCN(C[C@H](O)CO)CC2)ccc1Nc1ncc2ccc(-c3ccccc3OC)n2n1 [Example 767, (S)-3-(4-{3-Methoxy-4-[7-(2-methoxy-phenyl)-pyrrolo[2,1-f][1,2,4]triazin-2-ylamino]-phenyl}-[1,4]diazepan-1-yl)-propane-1,2-diol]"
4,> 7.00,"Cc1cc(-c2ccccc2N(C)S(C)(=O)=O)n2nc(Nc3ccc(C4CCN(CC(N)=O)CC4)cc3)ncc12 [Example 1261, 2-[4-(4-{7-[2-(Methanesulfonyl-methyl-amino)-phenyl]-5-methyl-pyrrolo[2,1-f][1,2,4]triazin-2-ylamino}-phenyl)-piperidin-1-yl]-acetamide]"
5,> 7.00,"Cc1cc2cnc(Nc3ccc(N4CCN(C)CC4)cc3)nn2c1-c1cccc(CCC#N)c1 [Example 1160, 3-(3-{6-Methyl-2-[4-(4-methyl-piperazin-1-yl)-phenylamino]-pyrrolo[2,1-f][1,2,4]triazin-7-yl}-phenyl)-propionitrile]"
6,> 7.00,"COc1cc(N2CCN(C[C@H](O)CO)CC2)ccc1Nc1ncc2ccc(-c3ccccc3OC)n2n1 [Example 760, (S)-3-(4-{3-Methoxy-4-[7-(2-methoxy-phenyl)-pyrrolo[2,1-f][1,2,4]triazin-2-ylamino]-phenyl}-piperazin-1-yl)-propane-1,2-diol]"
7,> 7.00,"COc1cc(N2CCN(C[C@@H](O)CO)CC2)ccc1Nc1ncc2ccc(-c3ccccc3OC)n2n1 [Example 758, (R)-3-(4-{3-Methoxy-4-[7-(2-methoxy-phenyl)-pyrrolo[2,1-f][1,2,4]triazin-2-ylamino]-phenyl}-piperazin-1-yl)-propane-1,2-diol]"
8,> 7.00,"COc1cc(N2CCC(N3CCNCC3)CC2)ccc1Nc1ncc2ccc(-c3ccccc3OC)n2n1 [Example 537, [7-(2-Methoxy-phenyl)-pyrrolo[2,1-f][1,2,4]triazin-2-yl]-[2-methoxy-4-(4-piperazin-1-yl-piperidin-1-yl)-phenyl]-amine]"
9,> 7.00,"CN1CCN(c2ccc(Nc3ncc4ccc(-c5ccccc5N(C)S(C)(=O)=O)n4n3)c(Cl)c2)CC1 [Example 507, N-(2-{2-[2-Chloro-4-(4-methyl-piperazin-1-yl)-phenylamino]-pyrrolo[2,1-f][1,2,4]triazin-7-yl}-phenyl)-N-methyl-methanesulfonamide]"
10,> 7.00,"CN1CCN(c2ccc(Nc3ncc4ccc(-c5ccccc5N(C)S(C)(=O)=O)n4n3)cc2)CC1 [Example 627, N-Methyl-N-(2-{2-[4-(4-methyl-piperazin-1-yl)phenylamino]pyrrolo[2,1-f][1,2,4]triazin-7-yl}phenyl)methanesulfonamide]"

row,Molecule,pIC50
1,"N-tert-Butyl-3-{2-[3-fluoro-4-(4-methyl-piperazin-1-yl)-phenylamino]-pyrrolo[2,1-f][1,2,4]triazin-7-yl}-benzenesulfonamide [Example 1216]",6.00 to 7.00
